Laboratory results taken from US10828317B2, “Method of treating bacterial infections” (priority 2016, dated 2020).
Values after ≈ are worked out from the molar mass of the structure shown. Values joined by “and” are separate entries in the source; they are usually repeats but may differ in a detail not shown here. Equal entries are not always repeated. Where two headings read alike, the source gives them in different places. Blank lines part the entries; values can stand above or below the compound they belong to.

Columns and labels:
S. flexneri APV00906 = experiment: microbe, parasite or virus in culture; format: cell-based; conditions: letter before the MIC
Text: (§1) Inhibition of Heliobacter is important in view of increasing resistance and its association to gastric cancer.

S. flexneri APV00907 = experiment: MIC and antibiogram; format: cell-based; conditions: letter before the MIC
Text: as §1

S. sonnei APV00908 = experiment: MIC and antibiogram; format: cell-based; conditions: letter before the MIC
K. pneumoniae EN0262 = conditions: commercial antibiotics; data provided by IMBIM, BMC, Uppsala University; cited from earlier work
S. marescens EN0454 = experiment: MIC; format: cell-based, Serratia marescens; conditions: Serratia, EN0454, Combination 2 AZT+trimethoprim+uridine+thymidine, Table 16; read-out: MIC
M. luteus EN0455 = experiment: MIC; format: cell-based, Micrococcus luteus; conditions: Micrococcus luteus, EN0455, Combination 2 AZT+trimethoprim+uridine+thymidine, Table 16; read-out: MIC
P. mirabilis EN0457 = experiment: MIC; format: cell-based, Proteus mirabilis; conditions: Proteus mirabilis, EN0457, Combination 2 AZT+trimethoprim+uridine+thymidine, Table 16; read-out: MIC
P. aeruginosa EN0459 = experiment: MIC; format: cell-based, Pseudomonas aeruginosa; conditions: Pseudomonas aeruginosa, read-out: MIC
P. aeruginosa EN0460 = experiment: MIC; format: cell-based, Pseudomonas aeruginosa; conditions: Pseudomonas aeruginosa, read-out: MIC
Citrobacter sp. EN0465 = experiment: MIC; format: cell-based; conditions: Citrobacter, read-out: MIC
[1] = system: A. pittii or A. nosocomialis EN0180; experiment: MIC; format: cell-based, Acinetobacter pittii or nosocomialis; conditions: read-out: MIC
P. aeruginosa EN0422 = experiment: MIC; format: cell-based, Pseudomonas aeruginosa; conditions: Pseudomonas aeruginosa, read-out: MIC
P. mirabilis ST19 EN0445 = experiment: MIC; format: cell-based, Proteus mirabilis; conditions: Proteus mirabilis, read-out: MIC
E. coli EN002 = experiment: MIC, DtoIC; format: cell-based, Escherichia coli; conditions: Escherichia coli, read-out: MIC
P. aeruginosa EN004 = experiment: MIC, WT (EN004 = EN0004); format: cell-based, Pseudomonas aeruginosa
A. baumannii EN007 = experiment: MIC, WT (EN007 = EN0007); format: cell-based, Acinetobacter baumannii
S. aureus EN008 = experiment: MIC, Gram-positive control; format: cell-based, Staphylococcus aureus; conditions: Staphylococcus aureus, EN008, Combination 2 AZT+trimethoprim+uridine+thymidine, Table 16; read-out: MIC
P. aeruginosa EN014 = experiment: MIC, WT; format: cell-based, Pseudomonas aeruginosa; conditions: Pseudomonas aeruginosa, read-out: MIC
A. baumannii EN016 = experiment: MIC, WT; format: cell-based, Acinetobacter baumannii; conditions: Acinetobacter baumannii, read-out: MIC
E. coli = experiment: Murine peritonitis model; format: in vivo, mice; set-up: score at sampling: scale not given here; conditions: for CFU/ml PF / log CFU/ml PF / score at sampling: per mouse
S. aureus strain no 13 = experiment: MIC vs S. aureus LMG 15975, MRSA; conditions: for MIC: Staphylococcus aureus; for MIC BrdUrd: 2 μg/ml of trimethoprim
E. coli strain no 2 = experiment: MIC vs E. coli LMG 15862, penicillin resistant; conditions: Escherichia coli, Uridine 0 μg/ml
[2] = combination AZT+trimethoprim+uridine, Table 17B

Structure (SMILES): NCC[C@H](O)C(=O)N[C@@H]1C[C@H](N)[C@@H](O[C@H]2O[C@H](CN)[C@@H](O)[C@H](O)[C@H]2O)[C@H](O)[C@H]1O[C@H]1O[C@H](CO)[C@@H](O)[C@H](N)[C@H]1O [AMK, amikacin]
Antibiogram category (resistance pattern) (S. flexneri APV00906): R* | Antibiogram category (resistance pattern) (S. flexneri APV00907): R* | Antibiogram category (resistance pattern) (S. sonnei APV00908): R* | MIC (K. pneumoniae EN0262): 8 µg/mL (≈ 13.7 µM)

Structure (SMILES): C[C@H]1[C@H](NC(=O)/C(=N\OC(C)(C)C(=O)O)c2csc(N)n2)C(=O)N1S(=O)(=O)O [ATM, aztreonam]
MIC (K. pneumoniae EN0262): >16 µg/mL

MIC (S. marescens EN0454): > 4 µg/mL | MIC (M. luteus EN0455): > 4 µg/mL | MIC (P. mirabilis EN0457): > 4 µg/mL | MIC (P. aeruginosa EN0459; EN0459, Combination 1 AZT+trimethoprim+uridine, Table 16): > 4 µg/mL | MIC (P. aeruginosa EN0459; EN0459, Combination 2 AZT+trimethoprim+uridine+thymidine, Table 16): > 4 µg/mL | MIC (P. aeruginosa EN0459; EN0459, combination AZT+trimethoprim+uridine, Table 6): > 4 µg/mL | MIC (P. aeruginosa EN0460; EN0460, Combination 1 AZT+trimethoprim+uridine, Table 16): > 4 µg/mL | MIC (P. aeruginosa EN0460; EN0460, Combination 2 AZT+trimethoprim+uridine+thymidine, Table 16): > 4 µg/mL | MIC (P. aeruginosa EN0460; EN0460, combination AZT+trimethoprim+uridine, Table 6): > 4 µg/mL | MIC (Citrobacter sp. EN0465; SP.EN0465, Combination 1 AZT+trimethoprim+uridine, Table 16): > 4 µg/mL | MIC (Citrobacter sp. EN0465; SP.EN0465, Combination 2 AZT+trimethoprim+uridine+thymidine, Table 16): > 4 µg/mL | MIC (Citrobacter sp. EN0465; SP.EN0465, combination AZT+trimethoprim+uridine, Table 6): > 4 µg/mL | MIC ([1]; Combination 1 AZT+trimethoprim+uridine, Table 16): > 4 µg/mL | MIC ([1]; Combination 2 AZT+trimethoprim+uridine+thymidine, Table 16): > 4 µg/mL | MIC ([1]; combination AZT+trimethoprim+uridine, Table 6): > 4 µg/mL | MIC (P. aeruginosa EN0422; EN0422, Combination 1 AZT+trimethoprim+uridine, Table 16): > 4 µg/mL | MIC (P. aeruginosa EN0422; EN0422, Combination 2 AZT+trimethoprim+uridine+thymidine, Table 16): > 4 µg/mL | MIC (P. aeruginosa EN0422; EN0422, combination AZT+trimethoprim+uridine, Table 6): > 4 µg/mL | MIC (P. mirabilis ST19 EN0445; ST19EN0445, Combination 2 AZT+trimethoprim+uridine+thymidine, Table 16): > 4 µg/mL | MIC (P. mirabilis ST19 EN0445; ST19EN0445, combination AZT+trimethoprim+uridine, Table 6): > 4 µg/mL | MIC (E. coli EN002; EN002, Combination 1 AZT+trimethoprim+uridine, Table 16): 0.016 µg/mL | MIC (E. coli EN002; EN002, combination AZT+trimethoprim+uridine, Table 6): 0.016 µg/mL | MIC (P. aeruginosa EN004; Pseudomonas aeruginosa, EN004, Combination 1 AZT+trimethoprim+uridine, Table 16, read-out: MIC): > 4 µg/mL | MIC (P. aeruginosa EN004; Pseudomonas aeruginosa, EN004, Combination 2 AZT+trimethoprim+uridine+thymidine, Table 16, read-out: MIC): > 4 µg/mL | MIC (P. aeruginosa EN004; Pseudomonas aeruginosa, EN004, combination AZT+trimethoprim+uridine, Table 6, read-out: MIC): > 4 µg/mL | MIC (P. aeruginosa EN004; [2]): >4 µg/mL | MIC (A. baumannii EN007; Acinetobacter baumannii, EN007, Combination 1 AZT+trimethoprim+uridine, Table 16, read-out: MIC): > 4 µg/mL | MIC (A. baumannii EN007; Acinetobacter baumannii, EN007, Combination 2 AZT+trimethoprim+uridine+thymidine, Table 16, read-out: MIC): > 4 µg/mL | MIC (A. baumannii EN007; Acinetobacter baumannii, EN007, combination AZT+trimethoprim+uridine, Table 6, read-out: MIC): > 4 µg/mL | MIC (A. baumannii EN007; [2]): >4 µg/mL | MIC (S. aureus EN008): > 4 µg/mL | MIC (P. aeruginosa EN014; EN014, Combination 1 AZT+trimethoprim+uridine, Table 16): > 4 µg/mL | MIC (P. aeruginosa EN014; EN014, Combination 2 AZT+trimethoprim+uridine+thymidine, Table 16): > 4 µg/mL | MIC (P. aeruginosa EN014; EN014, combination AZT+trimethoprim+uridine, Table 6): > 4 µg/mL | MIC (A. baumannii EN016; EN016, Combination 1 AZT+trimethoprim+uridine, Table 16): > 4 µg/mL | MIC (A. baumannii EN016; EN016, Combination 2 AZT+trimethoprim+uridine+thymidine, Table 16): > 4 µg/mL | MIC (A. baumannii EN016; EN016, combination AZT+trimethoprim+uridine, Table 6): > 4 µg/mL | MIC (S. aureus strain no 13; NO13, read-out: MIC AZT, Iclaprim 0, Uridine 0 μg/ml): > 32 µg/mL | MIC (S. aureus strain no 13; NO13, read-out: MIC AZT, Iclaprim 0, Uridine 100 μg/ml): > 32 µg/mL | MIC (S. aureus strain no 13; NO13, read-out: MIC AZT, Iclaprim 0, Uridine 300 μg/ml): > 32 µg/mL | MIC (S. aureus strain no 13; NO13, read-out: MIC AZT, Iclaprim 0, Uridine 500 μg/ml): > 32 µg/mL | MIC (S. aureus strain no 13; NO13, read-out: MIC AZT, Iclaprim 0.03, Uridine 300 μg/ml): ≤ 0.008 µg/mL | MIC (S. aureus strain no 13; NO13, read-out: MIC AZT, Iclaprim 0.03, Uridine 500 μg/ml): ≤ 0.008 µg/mL | MIC (E. coli strain no 2; NO2, read-out: MIC AZT, Iclaprim 0.1): > 8 µg/mL | MIC (E. coli strain no 2; NO2, read-out: MIC AZT, Iclaprim 0.2): > 8 µg/mL
Structure (SMILES): Cc1cn([C@H]2C[C@H](N=[N+]=[N-])[C@@H](CO)O2)c(=O)[nH]c1=O [AZT, 3′-azido-3′-deoxythymidine]
CFU/ml PF (E. coli; AZT 30 mg/kg): 1.65E+04 CFU/ml and 4.25E+05 CFU/ml and 1.10E+07 CFU/ml and 6.75E+05 CFU/ml | log CFU/ml PF (E. coli; AZT 30 mg/kg): 4.22 log CFU/ml and 5.63 log CFU/ml and 7.04 log CFU/ml and 5.83 log CFU/ml | score at sampling (E. coli; AZT 30 mg/kg): 1 | inhibition in mice infected with E. coli (in words) (E. coli; murine peritonitis model): slight inhibition

MIC BrdUrd (S. aureus strain no 13; uridine 10 μg/ml): ≤2 µg/mL | MIC BrdUrd (S. aureus strain no 13; uridine 100 μg/ml): ≤2 µg/mL
Structure (SMILES): O=c1[nH]c(=O)n([C@H]2C[C@H](O)[C@@H](CO)O2)cc1Br [BrdUrd]

Structure (SMILES): CC(C)(O/N=C(\C(=O)N[C@@H]1C(=O)N2C(C(=O)[O-])=C(C[n+]3ccccc3)CS[C@H]12)c1csc(N)n1)C(=O)O [CAZ, ceftazidime]
Antibiogram category (resistance pattern) (S. flexneri APV00906): | | MIC (K. pneumoniae EN0262): >32 µg/mL

Structure (SMILES): CO/N=C(\C(=O)N[C@@H]1C(=O)N2C(C(=O)O)=C(COC(C)=O)CS[C@H]12)c1csc(N)n1 [CTX, cefotaxime]
MIC (K. pneumoniae EN0262): >32 µg/mL

Structure (SMILES): O=C(O)c1cn(C2CC2)c2cc(N3CCNCC3)c(F)cc2c1=O [Ciprofloxacin, ciprofloxacin]
CFU/ml PF (E. coli; Ciprofloxacin 14 mg/kg): 1.75E+03 CFU/ml and 2.50E+02 CFU/ml and 1.00E+03 CFU/ml (2×) | log CFU/ml PF (E. coli; Ciprofloxacin 14 mg/kg): 3.24 log CFU/ml and 2.40 log CFU/ml and 3.00 log CFU/ml (2×) | score at sampling (E. coli; Ciprofloxacin 14 mg/kg): 0 | MIC (K. pneumoniae EN0262): >2 µg/mL

Structure (SMILES): CO/N=C(\C(=O)N[C@@H]1C(=O)N2C(C(=O)[O-])=C(C[N+]3(C)CCCC3)CS[C@H]12)c1csc(N)n1 [FEP, cefepime]
MIC (K. pneumoniae EN0262): >16 µg/mL
